Results on 16 molecules are retold here after patent US20260055103A1, “2,3,4,9-TETRAHYDRO-1H-PYRIDO[3,4-B]INDOLE DERIVATIVES AS ESTROGEN RECEPTOR MODULATORS FOR THE TREATMENT OF CANCER” (Olema Pharmaceuticals, Inc., priority 2022, published 2026).

The test has as its target T1, estrogen receptor (Homo sapiens, UniProt P03372).
T1 construct: endogenous in cells; host or cells: ECC-1 cells
T1 sequence (P03372 1-595): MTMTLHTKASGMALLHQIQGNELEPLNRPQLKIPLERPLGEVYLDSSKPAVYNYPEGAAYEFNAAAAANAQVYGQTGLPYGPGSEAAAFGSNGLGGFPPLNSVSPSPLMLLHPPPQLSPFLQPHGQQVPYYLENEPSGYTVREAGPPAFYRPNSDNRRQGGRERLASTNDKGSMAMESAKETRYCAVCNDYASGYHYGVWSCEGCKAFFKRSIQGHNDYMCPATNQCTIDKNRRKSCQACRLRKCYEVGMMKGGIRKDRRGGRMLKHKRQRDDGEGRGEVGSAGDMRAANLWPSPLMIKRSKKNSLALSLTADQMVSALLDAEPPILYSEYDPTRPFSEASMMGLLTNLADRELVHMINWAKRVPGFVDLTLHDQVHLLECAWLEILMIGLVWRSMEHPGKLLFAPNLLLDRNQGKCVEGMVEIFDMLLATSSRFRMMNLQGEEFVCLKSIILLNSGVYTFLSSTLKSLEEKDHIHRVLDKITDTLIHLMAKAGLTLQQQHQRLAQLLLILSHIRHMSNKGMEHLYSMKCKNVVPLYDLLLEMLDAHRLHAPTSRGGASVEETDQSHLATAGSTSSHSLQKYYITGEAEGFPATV
Description: Alkaline phosphatase (AP) assay in ECC-1 cells, agonist mode (no E2) and antagonist mode (500 pM E2). It is filed as cell-based. The settings on record: 3 days, AP activity normalized to 500 pM E2 alone, agonist mode without E2, antagonist mode with 500 pM E2. The gist of the method:
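ECC-1 cells in hormone-depleted medium treated 3 days with compound alone (agonist mode) or with 500 pM E2 (antagonist mode). Alkaline phosphatase read by p-nitrophenyl phosphate hydrolysis, 40 min at 42° C, A405. Activity normalized to 500 pM E2 alone.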

Turning to `C[C@@H]1Cc2c([nH]c3ccccc23)[C@@H](c2cnc(C[C@@H]3CCN(CCCF)C3)s2)N1CC(C)(C)F` [Example I-43], the “Activity (estrogen receptor modulation, agonism and antagonism)” value (“Activity” for short) was “++ (estrogen receptor antagonism having (i) between 10% and 80% increase in the E2-normalized signal in the AP assay (agonist mode) and (ii) between 10% and 80% reduction in the E2-normalized signal in the AP assay (antagonist mode))”. For `C[C@@H]1Cc2c([nH]c3ccccc23)[C@@H](c2ncc(CC3CN(CCCF)C3)s2)N1CC(F)(F)CO` [Example I-44, 2,2-difluoro-3-[(1S,3R)-1-[5-[[1-(3-fluoropropyl)azetidin-3-yl]methyl]thiazol-2-yl]-3-methyl-1,3,4,9-tetrahydropyrido[3,4-b]indol-2-yl]propan-1-ol] the value was “++ (estrogen receptor antagonism having (i) between 10% and 80% increase in the E2-normalized signal in the AP assay (agonist mode) and (ii) between 10% and 80% reduction in the E2-normalized signal in the AP assay (antagonist mode))”. `CCCN1CC[C@@H](Cc2ncc([C@@H]3c4[nH]c5ccccc5c4C[C@@H](C)N3CC(F)F)s2)C1` [Example I-45, 5-[(1S,3R)-2-(2,2-difluoroethyl)-3-methyl-1,3,4,9-tetrahydropyrido[3,4-b]indol-1-yl]-2-[[(3S)-1-propylpyrrolidin-3-yl]methyl]thiazole]: the “Activity” value is “+ (estrogen receptor agonism having (i) at least 80% increase in the E2-normalized signal in the AP assay (agonist mode) and (ii) no more than 80% reduction in the E2-normalized signal in the AP assay (antagonist mode))”. Consider `CCCN1CC[C@@H](Cc2ncc([C@@H]3c4[nH]c5ccccc5c4C[C@@H](C)N3CC(F)(F)CO)s2)C1` [Example I-46, 2,2-difluoro-3-((1S,3R)-3-methyl-1-(2-(((S)-1-propylpyrrolidin-3-yl)methyl)thiazol-5-yl)-1,3,4,9-tetrahydro-2H-pyrido[3,4-b]indol-2-yl)propan-1-ol], for which the “Activity” value was “++ (estrogen receptor antagonism having (i) between 10% and 80% increase in the E2-normalized signal in the AP assay (agonist mode) and (ii) between 10% and 80% reduction in the E2-normalized signal in the AP assay (antagonist mode))”.

In the case of `CCCN1CC[C@@H](Cc2ncc([C@@H]3c4[nH]c5ccccc5c4C[C@@H](C)N3CC(C)(C)F)s2)C1` [Example I-47], the “Activity” value was “+ (estrogen receptor agonism having (i) at least 80% increase in the E2-normalized signal in the AP assay (agonist mode) and (ii) no more than 80% reduction in the E2-normalized signal in the AP assay (antagonist mode))”.

With `C[C@@H]1Cc2c([nH]c3ccccc23)[C@@H](c2cnc(C[C@@H]3CCN(CCCF)C3)s2)N1CC(F)(F)F` [Example I-48, 2-[[(3S)-1-(3-fluoropropyl)pyrrolidin-3-yl]methyl]-5-[(1S,3R)-3-methyl-2-(2,2,2-trifluoroethyl)-1,3,4,9-tetrahydropyrido[3,4-b]indol-1-yl]thiazole], the “Activity” value is “++ (estrogen receptor antagonism having (i) between 10% and 80% increase in the E2-normalized signal in the AP assay (agonist mode) and (ii) between 10% and 80% reduction in the E2-normalized signal in the AP assay (antagonist mode))”.

Turning to `CCCN1CC[C@@H](Cc2ncc([C@@H]3c4[nH]c5ccccc5c4C[C@@H](C)N3CC(F)(F)F)s2)C1` [Example I-49, 5-[(1S,3R)-3-methyl-2-(2,2,2-trifluoroethyl)-1,3,4,9-tetrahydropyrido[3,4-b]indol-1-yl]-2-[[(3S)-1-propylpyrrolidin-3-yl]methyl]thiazole], the “Activity” value is “+ (estrogen receptor agonism having (i) at least 80% increase in the E2-normalized signal in the AP assay (agonist mode) and (ii) no more than 80% reduction in the E2-normalized signal in the AP assay (antagonist mode))”.

`CCCN1CC(Cc2cnc([C@@H]3c4[nH]c5ccccc5c4C[C@@H](C)N3CC(F)(F)CO)s2)C1` [Example I-50, 2,2-difluoro-3-[(1S,3R)-3-methyl-1-[5-[(1-propylazetidin-3-yl)methyl]thiazol-2-yl]-1,3,4,9-tetrahydropyrido[3,4-b]indol-2-yl]propan-1-ol]: the “Activity” value is “++ (estrogen receptor antagonism having (i) between 10% and 80% increase in the E2-normalized signal in the AP assay (agonist mode) and (ii) between 10% and 80% reduction in the E2-normalized signal in the AP assay (antagonist mode))”. For `C[C@@H]1Cc2c([nH]c3ccccc23)[C@@H](c2cnc(C[C@@H]3CCN(CCC(F)F)C3)s2)N1CC(C)(C)F` [Example I-51, 2-[[(3S)-1-(3,3-difluoropropyl)pyrrolidin-3-yl]methyl]-5-[(1S,3R)-2-(2-fluoro-2-methyl-propyl)-3-methyl-1,3,4,9-tetrahydropyrido[3,4-b]indol-1-yl]thiazole] the value was “+ (estrogen receptor agonism having (i) at least 80% increase in the E2-normalized signal in the AP assay (agonist mode) and (ii) no more than 80% reduction in the E2-normalized signal in the AP assay (antagonist mode))”; for `C[C@@H]1Cc2c([nH]c3ccccc23)[C@@H](c2nnc(CC3CN(CCCF)C3)s2)N1CC(C)(C)F` [Example I-52, 2-((1S,3R)-2-(2-fluoro-2-methylpropyl)-3-methyl-2,3,4,9-tetrahydro-1H-pyrido[3,4-b]indol-1-yl)-5-((1-(3-fluoropropyl)azetidin-3-yl)methyl)-1,3,4-thiadiazole], “++ (estrogen receptor antagonism having (i) between 10% and 80% increase in the E2-normalized signal in the AP assay (agonist mode) and (ii) between 10% and 80% reduction in the E2-normalized signal in the AP assay (antagonist mode))”; for `COCCCN1CC(Cc2ccc([C@@H]3c4[nH]c5ccccc5c4C[C@@H](C)N3CC(F)(F)CO)s2)C1` [Example I-53, 2,2-difluoro-3-[(1S,3R)-1-[5-[[1-(3-methoxypropyl)azetidin-3-yl]methyl]-2-thienyl]-3-methyl-1,3,4,9-tetrahydropyrido[3,4-b]indol-2-yl]propan-1-ol], “++ (estrogen receptor antagonism having (i) between 10% and 80% increase in the E2-normalized signal in the AP assay (agonist mode) and (ii) between 10% and 80% reduction in the E2-normalized signal in the AP assay (antagonist mode))”.

`COCCCN1CC(Cc2ccc([C@@H]3c4[nH]c5ccccc5c4C[C@@H](C)N3CC(C)(C)F)s2)C1` [Example I-54, (1S,3R)-2-(2-fluoro-2-methyl-propyl)-1-[5-[[1-(3-methoxypropyl)azetidin-3-yl]methyl]-2-thienyl]-3-methyl-1,3,4,9-tetrahydropyrido[3,4-b]indole]: the “Activity” value is “+ (estrogen receptor agonism having (i) at least 80% increase in the E2-normalized signal in the AP assay (agonist mode) and (ii) no more than 80% reduction in the E2-normalized signal in the AP assay (antagonist mode))”. For `C[C@@H]1Cc2c([nH]c3ccccc23)[C@@H](c2sc(CC3CN(CCCF)C3)cc2F)N1CC(F)(F)CO` [Example I-55, 2,2-difluoro-3-[(1S,3R)-1-[3-fluoro-5-[[1-(3-fluoropropyl)azetidin-3-yl]methyl]-2-thienyl]-3-methyl-1,3,4,9-tetrahydropyrido[3,4-b]indol-2-yl]propan-1-ol] the value was “+++ (estrogen receptor antagonism (i) with pIC50 greater than 7.5 and at least a 10% reduction in the E2-normalized signal in the AP assay (antagonist mode); and no more than 10% increase in E2-normalized signal in the AP assay (agonist mode))”. With `C[C@@H]1Cc2c([nH]c3ccccc23)[C@@H](c2ccc(CC3CN(CCC#N)C3)s2)N1CC(C)(C)F` [Example I-56, 3-[3-[[5-[(1S,3R)-2-(2-fluoro-2-methyl-propyl)-3-methyl-1,3,4,9-tetrahydropyrido[3,4-b]indol-1-yl]-2-thienyl]methyl]azetidin-1-yl]propanenitrile] the entry was “++ (estrogen receptor antagonism having (i) between 10% and 80% increase in the E2-normalized signal in the AP assay (agonist mode) and (ii) between 10% and 80% reduction in the E2-normalized signal in the AP assay (antagonist mode))”; with `C[C@@H]1Cc2c([nH]c3ccccc23)[C@@H](c2ccc(CC3CN(CCC#N)C3)s2)N1CC(F)(F)CO` [Example I-57], “++ (estrogen receptor antagonism having (i) between 10% and 80% increase in the E2-normalized signal in the AP assay (agonist mode) and (ii) between 10% and 80% reduction in the E2-normalized signal in the AP assay (antagonist mode))”.

Regarding `C#CCN1CC(Cc2ccc([C@@H]3c4[nH]c5ccccc5c4C[C@@H](C)N3CC(C)(C)F)s2)C1` [Example I-58, (1S,3R)-2-(2-fluoro-2-methyl-propyl)-3-methyl-1-[5-[(1-prop-2-ynylazetidin-3-yl)methyl]-2-thienyl]-1,3,4,9-tetrahydropyrido[3,4-b]indole], the “Activity” value is “+ (estrogen receptor agonism having (i) at least 80% increase in the E2-normalized signal in the AP assay (agonist mode) and (ii) no more than 80% reduction in the E2-normalized signal in the AP assay (antagonist mode))”.
